Results reported in patent EP4603105A1, “PHARMACEUTICAL COMPOSITION CONTAINING CYCLIC COMPOUND HAVING SELECTIVE KRAS INHIBITORY EFFECT AGAINST HRAS AND NRAS” (CHUGAI SEIYAKU KABUSHIKI KAISHA, priority 2022, dated 2024).
Read-outs that look alike come from different tables or passages of the source. *1 amine or outer side, *2 acyl side, *3 side chain or, on linkers, in order; H or OH if unused. Where a SMILES comes first, the peptide text is derived from it. Bridges are numbered along the chain shown (N, C = ends). [ ]: non-standard residue; d: D form. The star is where a group is joined. hPhe(3-Cl-4-CF3) = N[C@@H](CCc1ccc(C(F)(F)F)c(Cl)c1)C(=O)O; NPrPhe(4-CF3) = CCCN[C@@H](Cc1ccc(C(F)(F)F)cc1)C(=O)O; NMePhe(4-CF3) = CN[C@@H](Cc1ccc(C(F)(F)F)cc1)C(=O)O; X46 = C=CCCN([C@@H](Cc1ccc(C)cc1)C(=O)[*:2])[*:1]; NMeGly(cPent) = CN[C@H](C(=O)O)C1CCCC1; NMeNva(3-Et) = CCC(CC)[C@H](NC)C(=O)O; NMeD = CN[C@@H](CC(=O)O)C(=O)O; NMeL = CN[C@@H](CC(C)C)C(=O)O; X10 = N#CCN(CC(=O)[*:2])[*:1]; Morpholide = C1CN(*)CCO1; NMeA = CN[C@@H](C)C(=O)O; Ac5c = NC1(C(=O)O)CCCC1; Aze = O=C(O)[C@@H]1CCN1; Ac4c = NC1(C(=O)O)CCC1; Sar = CNCC(=O)O

Key:
[1] = target: HRAS wild-type protein (Homo sapiens, UniProt P01112); experiment: Binding to HRAS by surface plasmon resonance (SPR), KD and KD ratio to KRAS
HRAS wild-type protein, sequence (P01112 whole entry): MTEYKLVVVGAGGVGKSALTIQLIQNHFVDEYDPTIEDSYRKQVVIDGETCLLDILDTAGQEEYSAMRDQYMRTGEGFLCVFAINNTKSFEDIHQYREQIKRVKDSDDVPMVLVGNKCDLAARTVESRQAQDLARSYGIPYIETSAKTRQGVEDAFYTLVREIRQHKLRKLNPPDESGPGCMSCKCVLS
In short: (§1)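 Captured GDP-RAS (~100–300 RU) was exposed to increasing compound concentrations, 75 s per step, in running buffer with 10 µM GDP, 10 mM MgCl2 and 4% DMSO at pH 7.4.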

[2] = tested on: human lung cancer strain NCI-H441; type: cell-based
In short: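 Step one: dispense the test compound in serial DMSO dilutions. Step three: add the reagent and measure […].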

[3] = target: GDP-bound NRAS wild-type protein (Homo sapiens, UniProt P01111); experiment: Binding to NRAS by surface plasmon resonance (SPR), KD and KD ratio to KRAS
GDP-bound NRAS wild-type protein, sequence (P01111 whole entry): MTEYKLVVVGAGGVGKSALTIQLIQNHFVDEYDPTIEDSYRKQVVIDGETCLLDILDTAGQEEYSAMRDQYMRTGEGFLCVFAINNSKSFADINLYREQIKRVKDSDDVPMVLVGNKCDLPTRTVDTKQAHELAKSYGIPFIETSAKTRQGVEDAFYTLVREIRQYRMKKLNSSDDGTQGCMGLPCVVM
In short: as §1

[4] = ratio of KD for HRAS wild-type protein to KD for KRAS
[5] = ratio of KD for GDP-bound NRAS wild-type protein to KD for KRAS
[6] = ratio of the KD value with respect to HRAS wild-type protein to the KD value with respect to KRAS
[7] = ratio of the KD value with respect to GDP-bound NRAS wild-type protein to the KD value with respect to KRAS

IC50 [2]	SMILES	HRAS /KRAS [1, 4]	NRAS /KRAS [3, 5]	HRAS /KRAS [1, 6]	NRAS /KRAS [3, 7]	IC50 ([2]; NCI-H441 cells, 4 days, CellTiter-Glo, read-out: NCl-H441 IC50)
14.1 nM	CCC[C@H]1C(=O)N[C@@H]([C@@H](C)CC)C(=O)N(C)CC(=O)N(C)[C@H]2C/C=C\CCN(C2=O)[C@@H](Cc2ccc(C)cc2)C(=O)N(C)CC(=O)N[C@@H](CCc2ccc(C(F)(F)F)c(OC)c2)C(=O)N2C[C@H](OCC)C[C@H]2C(=O)NC2(CC(C)(C)C2)C(=O)N(C)[C@@H]([C@@H](C)CC)C(=O)N(C)[C@H](C(=O)N(C)C)CC(=O)N1C [PP3006]	A (a compound having 10 or more and less than 20 is denoted as A)	A (a compound having 10 or more and less than 20 is denoted as A)			
10.9 nM	CC[C@H](C)[C@@H]1NC(=O)[C@H](CC(C)C)N(C)C(=O)C[C@@H](C(=O)N2CCOCC2)N(C)C(=O)[C@H](C2CCCC2)N(C)C(=O)C2(CCCC2)NC(=O)[C@@H]2CCCN2C(=O)[C@H](CCc2ccc(C(F)(F)F)c(Cl)c2)NC(=O)CN(C)C(=O)[C@H](Cc2ccc(C(F)(F)F)cc2)N(C)C(=O)CN(C)C(=O)CN(C)C1=O [PP0076] ([NMeL]I[Sar][Sar][NMePhe(4-CF3)][Sar][hPhe(3-Cl-4-CF3)]P[Ac5c][NMeGly(cPent)][NMeD]-Morpholide; lactam N-11)	C (A compound having a KD ratio of 0.1 or more and less than 3 is denoted as C)	C (A compound having a KD ratio of 0.1 or more and less than 3 is denoted as C)			
8.3 nM	CCCN(C)C(=O)[C@@H]1CC(=O)N(C)[C@@H](C(C)C)C(=O)N[C@@H]([C@@H](C)CC)C(=O)N(C)CC(=O)N(C)[C@H]2C/C=C\CCN(C2=O)[C@@H](Cc2ccc(C(F)(F)F)cc2)C(=O)N(C)CC(=O)N[C@@H](CCc2ccc(C(F)(F)F)c(OC)c2)C(=O)N2C[C@H](OCC)C[C@H]2C(=O)NC2(CCC2)C(=O)N(C)[C@@H](C2CCCC2)C(=O)N1C [PP2020]			A (a compound having 10 or more and less than 20 is denoted as A)	A (a compound having 10 or more and less than 20 is denoted as A)	
	CCC[C@H]1C(=O)N[C@@H]([C@@H](C)CC)C(=O)N(C)CC(=O)N(C)[C@H]2C/C=C\CCN(C2=O)[C@@H](Cc2ccc(C(F)(F)F)cc2)C(=O)N(C)CC(=O)N[C@@H](CCc2cc(F)c(Cl)c(OC)c2)C(=O)N2C[C@H](OCC)C[C@H]2C(=O)NC2(CC(C)(C)C2)C(=O)N(C)[C@@H](C2CCCC2)C(=O)N(C)[C@H](C(=O)N(C)C)CC(=O)N1C [PP2864]	A (a compound having 10 or more and less than 20 is denoted as A)	A (a compound having 10 or more and less than 20 is denoted as A)			124 nM
5.5 nM	C=CCCN1C(=O)[C@@H]2CCN2C(=O)[C@H](C)N(C)C(=O)[C@H]([C@@H](C)CC)NC(=O)[C@H](CC(C)C)N(C)C(=O)C[C@@H](C(=O)N2CCOCC2)N(C)C(=O)[C@H](C2CCCC2)N(C)C(=O)C2(CCCC2)NC(=O)[C@@H]2CCCN2C(=O)[C@H](CCc2ccc(C(F)(F)F)c(Cl)c2)NC(=O)CN(C)C(=O)[C@@H]1Cc1ccc(C)cc1 [PP0089] ([NMeL]I[NMeA][Aze][X46][Sar][hPhe(3-Cl-4-CF3)]P[Ac5c][NMeGly(cPent)][NMeD]-Morpholide; lactam N-11)	B (a compound having 3 or more and less than 10 is denoted as B)	C (A compound having a KD ratio of 0.1 or more and less than 3 is denoted as C)			
16.3 nM	CCC[C@H]1C(=O)N[C@@H]([C@@H](C)CC)C(=O)N(C)CC(=O)N(C)[C@H]2C/C=C\CCN(C2=O)[C@@H](CC2CCCCC2)C(=O)N(C)CC(=O)N[C@@H](CCc2ccc(C(F)(F)F)c(OC)c2)C(=O)N2C[C@H](OCC)C[C@H]2C(=O)N(C)C2(CCC2)C(=O)N(C)[C@@H](C2CCCC2)C(=O)N(C)[C@H](C(=O)N(C)C)CC(=O)N1C [PP2336]			A (a compound having 10 or more and less than 20 is denoted as A)	A (a compound having 10 or more and less than 20 is denoted as A)	
586 nM	CC[C@H](C)[C@@H]1NC(=O)[C@@H]2CCCCCN2C(=O)C[C@@H](C(=O)N2CCOCC2)N(C)C(=O)[C@H](C2CCCC2)N(C)C(=O)C2(CCCC2)NC(=O)[C@@H]2CCCN2C(=O)[C@H](CCc2cc(F)c(C(F)(F)F)c(F)c2)NC(=O)CN(C)C(=O)[C@H](Cc2ccc(C(F)(F)F)cc2)N2CCCCC[C@@H](C2=O)N(C)C(=O)CN(C)C1=O [PP0521]			B (a compound having 3 or more and less than 10 is denoted as B)	B (a compound having 3 or more and less than 10 is denoted as B)	
25.5 nM	CCO[C@@H]1C[C@H]2C(=O)NC3(CCC3)C(=O)N(C)[C@@H](C3CCCC3)C(=O)N(C)[C@H](C(=O)N(C)C)CC(=O)N(C)[C@@H](CSC)C(=O)N[C@@H]([C@@H](C)CC)C(=O)N(C)CC(=O)N(C)[C@H]3C/C=C\CCN(C3=O)[C@@H](Cc3ccc(C(F)(F)F)cc3)C(=O)N(C)CC(=O)N[C@@H](CCc3cc(F)c(C(F)(F)F)c(F)c3)C(=O)N2C1 [PP1119]	A (a compound having 10 or more and less than 20 is denoted as A)	A (a compound having 10 or more and less than 20 is denoted as A)			
9.3 nM	CCCN1C(=O)[C@@H]2CCN2C(=O)CN(CC#N)C(=O)[C@H]([C@@H](C)CC)NC(=O)[C@H](CC(C)C)N(C)C(=O)C[C@@H](C(=O)N2CCOCC2)N(C)C(=O)[C@H](C2CCCC2)N(C)C(=O)C2(CCCC2)NC(=O)[C@@H]2CCCN2C(=O)[C@H](CCc2ccc(C(F)(F)F)c(Cl)c2)NC(=O)CN(C)C(=O)[C@@H]1Cc1ccc(C(F)(F)F)cc1 [PP0275] ([NMeL]I[X10][Aze][NPrPhe(4-CF3)][Sar][hPhe(3-Cl-4-CF3)]P[Ac5c][NMeGly(cPent)][NMeD]-Morpholide; lactam N-11)	C (A compound having a KD ratio of 0.1 or more and less than 3 is denoted as C)	C (A compound having a KD ratio of 0.1 or more and less than 3 is denoted as C)			
7.8 nM	CCCO[C@H](C)[C@@H]1NC(=O)[C@H](CC(C)C)N(C)C(=O)C[C@@H](C(=O)N(C)C)N(C)C(=O)[C@H](C2CCCC2)N(C)C(=O)C2(CC(C)(C)C2)NC(=O)[C@@H]2C[C@@H](OCC)CN2C(=O)[C@H](CCc2cc(F)c(C(F)(F)F)c(F)c2)NC(=O)CN(C)C(=O)[C@H](Cc2ccc(C(F)(F)F)cc2)N2CC/C=C\C[C@@H](C2=O)N(C)C(=O)CN(C)C1=O [PP1921]			A (a compound having 10 or more and less than 20 is denoted as A)	A (a compound having 10 or more and less than 20 is denoted as A)	
17 nM	CC[C@H](C)[C@@H]1NC(=O)[C@H](C(C)C)N(C)C(=O)C[C@@H](C(=O)N(C)CC)N(C)C(=O)[C@H](C2CCCC2)N(C)C(=O)C2(CCC2)NC(=O)[C@@H]2C[C@H](C)CN2C(=O)[C@H](CCc2ccc(C(F)(F)F)c(OC)c2)NC(=O)CN(C)C(=O)[C@H](Cc2ccc(C(F)(F)F)cc2)N2CC/C=C\C[C@@H](C2=O)N(C)C(=O)CN(C)C1=O [PP2065]			B (a compound having 3 or more and less than 10 is denoted as B)	A (a compound having 10 or more and less than 20 is denoted as A)	
38 nM	CCCN1C(=O)CN(C)C(=O)[C@H](C)NC(=O)[C@H]([C@@H](C)CC)NC(=O)[C@H](CC(C)C)N(C)C(=O)C[C@@H](C(=O)N2CCOCC2)N(C)C(=O)[C@H](C2CCCC2)N(C)C(=O)C2(CCCC2)NC(=O)[C@@H]2CCCN2C(=O)[C@H](CCc2ccc(C(F)(F)F)c(Cl)c2)NC(=O)CN(C)C(=O)[C@@H]1Cc1ccc(C(F)(F)F)cc1 [PP1971] ([NMeL]IA[Sar][NPrPhe(4-CF3)][Sar][hPhe(3-Cl-4-CF3)]P[Ac5c][NMeGly(cPent)][NMeD]-Morpholide; lactam N-11)			B (a compound having 3 or more and less than 10 is denoted as B)	B (a compound having 3 or more and less than 10 is denoted as B)	
5 nM	CCO[C@@H]1C[C@H]2C(=O)NC3(CC(C)(C)C3)C(=O)N(C)[C@@H](C3CCCC3)C(=O)N(C)[C@H](C(=O)N(C)CC)CC(=O)N(C)[C@@H](CC(C)C)C(=O)N[C@@H]([C@@H](C)CC)C(=O)N(C)CC(=O)N(C)[C@H]3C/C=C\CCN(C3=O)[C@@H](Cc3ccc(C(F)F)cc3)C(=O)N(C)CC(=O)N[C@@H](CCc3ccc(C(F)(F)F)c(OC)c3)C(=O)N2C1 [PP2828]	A (a compound having 10 or more and less than 20 is denoted as A)	A (a compound having 10 or more and less than 20 is denoted as A)			
6 nM	CCCN1C(=O)CN(C)C(=O)CN(C)C(=O)[C@H]([C@@H](C)CC)NC(=O)[C@H](CC(C)C)N(C)C(=O)C[C@@H](C(=O)N(C)C)N(C)C(=O)[C@H](C(CC)CC)N(C)C(=O)C2(CCC2)NC(=O)[C@@H]2CCCN2C(=O)[C@H](CCc2ccc(C(F)(F)F)c(Cl)c2)NC(=O)CN(C)C(=O)[C@@H]1Cc1ccc(C(F)(F)F)cc1 [PP1960] ([NMeL]I[Sar][Sar][NPrPhe(4-CF3)][Sar][hPhe(3-Cl-4-CF3)]P[Ac4c][NMeNva(3-Et)][NMeD]-NMe2; lactam N-11)			C (A compound having a KD ratio of 0.1 or more and less than 3 is denoted as C)	B (a compound having 3 or more and less than 10 is denoted as B)	

SMILES	IC50 [2]	HRAS /KRAS [1, 4]	NRAS /KRAS [3, 5]	HRAS /KRAS [1, 6]	NRAS /KRAS [3, 7]	IC50 ([2]; NCI-H441 cells, 4 days, CellTiter-Glo, read-out: NCl-H441 IC50)
CCC[C@H]1C(=O)N[C@@H]([C@@H](C)CC)C(=O)N(C2CC2)CC(=O)N(C)[C@H]2C/C=C\CCN(C2=O)[C@@H](Cc2ccc(C)cc2)C(=O)N(C)CC(=O)N[C@@H](CCc2cc(F)c3c(c2)CCC3)C(=O)N2C[C@H](OCC)C[C@H]2C(=O)NC2(CC(C)(C)C2)C(=O)N(C)[C@@H](C2CCCC2)C(=O)N(C)[C@H](C(=O)N(C)C)CC(=O)N1C [PP2879]	122 nM	A (a compound having 10 or more and less than 20 is denoted as A)	A (a compound having 10 or more and less than 20 is denoted as A)			
